Experimental data: ChEMBL document CHEMBL4020729, “Synthesis and evaluation of anti-plasmodial and cytotoxic activities of epoxyazadiradione derivatives” (Eur J Med Chem, 2017)
Activity calls are given as the source filed them. The calls are words filed in the database; no cut-off is given here.

Tests used:
IMR-32 = experiment: Antiproliferative activity against human IMR32 cells after 48 hrs by SRB assay; format: functional, cell-based; conditions: IMR-32, 48 h
Plasmodium falciparum [1] = experiment: Anti-plasmodial activity against chloroquine-resistant Plasmodium falciparum Dd2 infected in human erythrocytes after 50 hrs by SYBR green dye based fluorescence assay; format: functional, cell-based; conditions: Dd2, 50 h
PANC-1 = experiment: Antiproliferative activity against human PANC1 cells after 48 hrs by SRB assay; format: functional, cell-based; conditions: PANC-1, 48 h
MDA-MB-231 = experiment: Antiproliferative activity against human MDA-MB-231 cells after 48 hrs by SRB assay; format: functional, cell-based; conditions: MDA-MB-231, 48 h
SiHa = experiment: Antiproliferative activity against human SiHa cells after 48 hrs by SRB assay; format: functional, cell-based
Plasmodium falciparum [2] = experiment: Anti-plasmodial activity against chloroquine-sensitive Plasmodium falciparum 3D7 infected in human erythrocytes after 50 hrs by SYBR green dye based fluorescence assay; format: functional, cell-based; conditions: 3D7, 50 h
Plasmodium berghei = experiment: Anti-plasmodial activity against Plasmodium berghei ANKA infected in BALB/c mouse at 50 mg/kg, ip assessed as reduction in parasitemia administered once per day for 4 days by Giemsa staining based light microscopic assay; format: functional, organism-based

SMILES	IC50 (IMR-32) [µM]	IC50 (Plasmodium falciparum [1]) [µM]	IC50 (PANC-1) [µM]	IC50 (MDA-MB-231) [µM]	IC50 (SiHa) [µM]	IC50 (Plasmodium falciparum [2]) [µM]	Activity (Plasmodium berghei)
CCN1CCN(CC(=O)O[C@@H]2C[C@H]3C(C)(C)C(=O)C=C[C@]3(C)[C@H]3CC[C@@]4(C)[C@H](c5ccoc5)C(=O)[C@H]5O[C@]54[C@@]32C)CC1	> 100	6	> 100	> 100	> 100	8.6	–
CC(=O)O[C@@H]1C[C@H]2C(C)(C)C(=O)C=C[C@]2(C)[C@H]2CC[C@@]3(C)[C@H](c4ccoc4)/C(=N\OCc4cn(CC(=O)Nc5ccc(C)cc5)nn4)[C@H]4O[C@]43[C@@]21C	> 100	24	> 100	> 100	> 100	31	–
CC(=O)O[C@@H]1C[C@H]2C(C)(C)C(=O)C=C[C@]2(C)[C@H]2CC[C@@]3(C)[C@H](c4ccoc4)/C(=N\OCc4cn(-c5cc([N+](=O)[O-])ccc5Cl)nn4)[C@H]4O[C@]43[C@@]21C	> 100	3.8	> 100	> 100	> 100	5.1	–
CC(=O)O[C@@H]1C[C@H]2C(C)(C)C(=O)C=C[C@]2(C)[C@H]2CC[C@@]3(C)[C@H](c4ccoc4)/C(=N\OCc4cn(-c5ccc(Cl)c([N+](=O)[O-])c5)nn4)[C@H]4O[C@]43[C@@]21C	> 100	1.3	> 100	> 100	> 100	2.8	–
COc1cc(-n2cc(CO/N=C3/[C@H]4O[C@]45[C@@]4(C)[C@H](CC[C@@]5(C)[C@@H]3c3ccoc3)[C@@]3(C)C=CC(=O)C(C)(C)[C@@H]3C[C@H]4OC(C)=O)nn2)c(OC)cc1Cl	> 100	1.2	35.1	> 100	> 100	1.5	inactive
CC(=O)O[C@@H]1C[C@H]2C(C)(C)C(=O)C=C[C@]2(C)[C@H]2CC[C@@]3(C)[C@H](c4ccoc4)C(=O)[C@H]4O[C@]43[C@@]21C [EPOXYAZADIRADIONE]	> 100	2.9	> 100	> 100	> 100	2.9	–
C#CCO/N=C1/[C@H]2O[C@]23[C@@]2(C)[C@H](CC[C@@]3(C)[C@@H]1c1ccoc1)[C@@]1(C)C=CC(=O)C(C)(C)[C@@H]1C[C@H]2OC(C)=O	> 100	8.4	> 100	> 100	> 100	7	–
CC(=O)O[C@@H]1C[C@H]2C(C)(C)C(=O)C=C[C@]2(C)[C@H]2CC[C@@]3(C)[C@H](c4ccoc4)/C(=N\OCc4cn(CC(=O)Nc5ccc(F)c(Cl)c5)nn4)[C@H]4O[C@]43[C@@]21C	> 100	26	> 100	> 100	> 100	32	–
CC(=O)O[C@@H]1C[C@H]2C(C)(C)C(=O)C=C[C@]2(C)[C@H]2CC[C@@]3(C)[C@H](c4ccoc4)/C(=N\O)[C@H]4O[C@]43[C@@]21C	> 100	2.2	> 100	> 100	> 100	7.7	–
CC1(C)C(=O)C=C[C@]2(C)[C@H]3CC[C@@]4(C)[C@H](c5ccoc5)C(=O)[C@H]5O[C@]54[C@]3(C)C(=O)C[C@@H]12	> 100	20	> 100	18	> 100	12.9	–
CC(=O)O[C@@H]1C[C@H]2C(C)(C)C(=O)C=C[C@]2(C)[C@H]2CC[C@@]3(C)[C@H](c4ccoc4)/C(=N\OCc4cn(-c5ccc(C(C)=O)cc5)nn4)[C@H]4O[C@]43[C@@]21C	> 100	2.3	> 100	> 100	> 100	3.1	–
